Data on 27 compounds can be found in PMC6269873, “Substituted 3-Benzylcoumarins as Allosteric MEK1 Inhibitors: Design, Synthesis and Biological Evaluation as Antiviral Agents” (Molecules, 2013).

The target in one data set is phosphorylated MEK1 (Homo sapiens, UniProt Q02750). Nature of the data set: MEK1 binding assay (HTRF, tracer displacement). The conditions noted are these: for inhibition at 2 µM: read-out: % binding (2 µM); for inhibition at 20 µM: read-out: % binding (20 µM); for IC50: HTRF binding to GST tagged phosphorylated MEK1, read-out: IC50. How it is done: The homogeneous time resolved fluorescence (HTRF) assay was performed on a Proxiplate-384 F plus solid back plate (Perkin Elmer, Waltham, MA. USA) with 5 nM GST tagged phosphorylated MEK1 (GST-MEK1), 2 nM europium-labeled anti-GST antibody (Eu-anti-GST), 20 nM kinase tracer 236 and test compound at a variety of concentrations. In the reaction mixture, GST-MEK1 forms a complex with the Eu-anti-GST and the tracer. Excitation of europium (the donor) using a 340-nm excitation filter results in energy transfer to the fluorophore of the tracer. This energy transfer is detected by an increase in the fluorescence emission of the tracer at 665 nm and a decrease in the fluorescence emission of europium at 615 nm. The FRET ratio was calculated by dividing the emission signal at 665 nm by the emission signal at 615 nm. A competitor compound such as a MEK inhibitor replaces the tracer from the complex and decreases the FRET ratio accordingly. The plate was incubated in dark at room temperature for 30 min before measuring the fluorescent emission of each well at 665 and 615 nm using a 340-nm excitation filter, 100-µs delay time, and 200-µs integration time, on a PHERAStar plate reader (BMG Labtech, Durham, NC, USA). […] Data shown as %Inhibition normalized to AZD6244 at 100 µM.
Chain of phosphorylated MEK1 (Q02750 whole entry): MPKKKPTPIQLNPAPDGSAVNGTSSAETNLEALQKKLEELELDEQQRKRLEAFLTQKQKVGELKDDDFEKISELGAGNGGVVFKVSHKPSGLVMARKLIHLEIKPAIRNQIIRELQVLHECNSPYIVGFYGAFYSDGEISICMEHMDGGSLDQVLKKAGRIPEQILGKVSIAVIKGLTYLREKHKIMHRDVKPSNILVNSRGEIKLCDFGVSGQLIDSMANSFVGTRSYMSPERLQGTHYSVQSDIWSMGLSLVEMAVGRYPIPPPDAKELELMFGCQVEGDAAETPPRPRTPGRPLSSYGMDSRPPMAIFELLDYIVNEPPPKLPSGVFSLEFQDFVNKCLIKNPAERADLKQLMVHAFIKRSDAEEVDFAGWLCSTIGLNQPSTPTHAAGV

What is called melting point is the temperature, or range, at which the solid turns liquid. `CCCc1c(Cc2ccc(F)cc2)c(=O)oc2cc(OC(=O)N(CC)CC)ccc12` [Compound 26, 3-(4-Fluorobenzyl)-2-oxo-4-propyl-2H-chromen-7-yl diethylcarbamate] registered a melting point of 51 to 52 °C. Further, on phosphorylated MEK1, the inhibition at 2 µM is 35.2% and the inhibition at 20 µM amounted to 37.5%.

As for `CC(=O)Oc1cc2oc(=O)c(Cc3ccccc3)c(C)c2cc1Cl` [Compound 27, 3-Benzyl-6-chloro-4-methyl-2-oxo-2H-chromen-7-yl acetate], the melting point stood at 190 °C. Also, at phosphorylated MEK1, the inhibition at 2 µM is 30.6% and the inhibition at 20 µM is 30.8%.

Compound `CCCc1c(Cc2ccccc2)c(=O)oc2cc(OC(C)=O)ccc12` [Compound 30, 3-Benzyl-2-oxo-4-propyl-2H-chromen-7-yl acetate] came in with a melting point of 139 to 140 °C. For the same compound, at phosphorylated MEK1, the inhibition at 2 µM stood at 15.5% and the inhibition at 20 µM worked out at 25.6%.

One may read the IC50 as the concentration at which inhibition is half-maximal. For `CCc1c(Cc2ccc(F)cc2)c(=O)oc2cc(OC(C)=O)ccc12` [Compound 32, 4-Ethyl-3-(4-fluorobenzyl)-2-oxo-2H-chromen-7-yl acetate], the melting point fell in the range of 122 to 123 °C. In addition, on phosphorylated MEK1, the “binding affinity (in words)” value is given as “active”, the half-maximal inhibitory concentration (IC50) worked out at 91.2 nM, the inhibition at 2 µM was found to be 94.6% and the inhibition at 20 µM was found to be 101%.

For the compound `CCC(=O)Oc1cc2oc(=O)c(Cc3ccccc3)c(C)c2cc1Cl` [Compound 34, 3-Benzyl-6-chloro-4-methyl-2-oxo-2H-chromen-7-yl propionate], the melting point fell in the range of 124 to 126 °C. Further, at phosphorylated MEK1, the 50% inhibitory concentration (IC50) turned out to be 326 nM, the inhibition at 2 µM came to 70% and the inhibition at 20 µM was determined as 72.4%.

For `CCC(=O)Oc1ccc2c(C)c(Cc3ccccc3)c(=O)oc2c1` [Compound 35, 3-Benzyl-4-methyl-2-oxo-2H-chromen-7-yl propionate], the melting point lay within 118 to 119 °C. Moreover, on phosphorylated MEK1, the IC50 was determined as 1030 nM, the inhibition at 2 µM worked out at 64.5% and the inhibition at 20 µM was determined as 85%.

`CCCc1c(Cc2ccccc2)c(=O)oc2cc(OC(=O)CC)ccc12` [Compound 37, 3-Benzyl-2-oxo-4-propyl-2H-chromen-7-yl propionate] registered a melting point of 120 to 121 °C. On phosphorylated MEK1, the inhibition at 2 µM was 19.4% and the inhibition at 20 µM was 38.8%.

Compound `CCC(=O)Oc1ccc2c(CC)c(Cc3ccc(F)cc3)c(=O)oc2c1` [Compound 39, 4-Ethyl-3-(4-fluorobenzyl)-2-oxo-2H-chromen-7-yl propionate] registered a melting point of 97 to 98 °C. For the same compound, at phosphorylated MEK1, the “binding affinity (in words)” value is recorded as “active”, the IC50 stood at 140 nM, the inhibition at 2 µM stood at 75.4% and the inhibition at 20 µM was 76.3%.

`CCCC(=O)Oc1cc2oc(=O)c(Cc3ccccc3)c(C)c2cc1Cl` [Compound 41, 3-Benzyl-6-chloro-4-methyl-2-oxo-2H-chromen-7-yl butyrate] had a melting point of 107 to 108 °C. In addition, at phosphorylated MEK1, the inhibition at 2 µM stood at 21% and the inhibition at 20 µM came out at 25.8%.

Take `CCCC(=O)Oc1ccc2c(CCC)c(Cc3ccccc3)c(=O)oc2c1` [Compound 44, 3-Benzyl-2-oxo-4-propyl-2H-chromen-7-yl butyrate]: the melting point is 105 to 106 °C. For the same compound, at phosphorylated MEK1, the inhibition at 2 µM is 14% and the inhibition at 20 µM was found to be 38.9%.

The compound `CCCC(=O)Oc1ccc2c(C)c(Cc3ccc(F)cc3)c(=O)oc2c1` [Compound 45, 3-(4-Fluorobenzyl)-4-methyl-2-oxo-2H-chromen-7-yl butyrate] gave a melting point of 85 to 86 °C. Also, on phosphorylated MEK1, the concentration for half-maximal inhibition (IC50) was determined as 824 nM, the inhibition at 2 µM worked out at 45.3% and the inhibition at 20 µM stood at 72.3%.

Compound `CCCC(=O)Oc1ccc2c(CC)c(Cc3ccc(F)cc3)c(=O)oc2c1` [Compound 46, 4-Ethyl-3-(4-fluorobenzyl)-2-oxo-2H-chromen-7-yl butyrate] registered a melting point of 79 °C. Moreover, on phosphorylated MEK1, the “binding affinity (in words)” value was “active”, the IC50 amounted to 909 nM, the inhibition at 2 µM was found to be 76.9% and the inhibition at 20 µM worked out at 96.5%.

`CCCC(=O)Oc1ccc2c(CCC)c(Cc3ccc(F)cc3)c(=O)oc2c1` [Compound 47, 3-(4-Fluorobenzyl)-2-oxo-4-propyl-2H-chromen-7-yl butyrate]: the melting point lay within 88 to 90 °C. Moreover, at phosphorylated MEK1, the half-inhibitory concentration (IC50) was found to be 944 nM, the inhibition at 2 µM is 57% and the inhibition at 20 µM came out at 70.3%.

Compound `CCCCC(=O)Oc1ccc2c(C)c(Cc3ccccc3)c(=O)oc2c1` [Compound 48, 3-Benzyl-4-methyl-2-oxo-2H-chromen-7-yl pentanoate] gave a melting point of 110 to 111 °C. Further, on phosphorylated MEK1, the inhibition at 2 µM amounted to 18.8% and the inhibition at 20 µM was found to be 21.2%.

`CCCCC(=O)Oc1cc2oc(=O)c(Cc3ccccc3)c(C)c2cc1Cl` [Compound 49, 3-Benzyl-6-chloro-4-methyl-2-oxo-2H-chromen-7-yl pentanoate]: the melting point lay in the range of 108 to 109 °C. In addition, on phosphorylated MEK1, the inhibition at 2 µM was found to be 8.15% and the inhibition at 20 µM is 20.3%.

Compound `CCCCC(=O)Oc1ccc2c(CC)c(Cc3ccccc3)c(=O)oc2c1` [Compound 50, 3-Benzyl-4-ethyl-2-oxo-2H-chromen-7-yl pentanoate] displayed a melting point of 72 to 73 °C. In addition, at phosphorylated MEK1, the inhibition at 2 µM amounted to 37.2% and the inhibition at 20 µM came to 43.2%.

The compound `CCCCC(=O)Oc1ccc2c(CCC)c(Cc3ccccc3)c(=O)oc2c1` [Compound 51, 3-Benzyl-2-oxo-4-propyl-2H-chromen-7-yl pentanoate] yielded a melting point of 78 to 79 °C. On phosphorylated MEK1, the inhibition at 2 µM turned out to be 29.5% and the inhibition at 20 µM turned out to be 42.5%.

Compound `CCCCC(=O)Oc1ccc2c(CC)c(Cc3ccc(F)cc3)c(=O)oc2c1` [Compound 52, 4-Ethyl-3-(4-fluorobenzyl)-2-oxo-2H-chromen-7-yl pentanoate] gave a melting point of 70 to 71 °C. For the same compound, on phosphorylated MEK1, the “binding affinity (in words)” value is “inactive”, the inhibition at 2 µM came to 42.8% and the inhibition at 20 µM turned out to be 34%.

As for `CCCCC(=O)Oc1ccc2c(C)c(Cc3ccc(F)cc3)c(=O)oc2c1` [Compound 53, 3-(4-Fluorobenzyl)-4-methyl-2-oxo-2H-chromen-7-yl pentanoate], the melting point was 83 to 84 °C. Further, at phosphorylated MEK1, the inhibition at 2 µM worked out at 34.7% and the inhibition at 20 µM was 38.3%.

`CCCCC(=O)Oc1ccc2c(CCC)c(Cc3ccc(F)cc3)c(=O)oc2c1` [Compound 54, 3-(4-Fluorobenzyl)-2-oxo-4-propyl-2H-chromen-7-yl pentanoate] returned a melting point of 68 to 70 °C. Further, on phosphorylated MEK1, the inhibition at 2 µM was 11.7% and the inhibition at 20 µM worked out at 23.9%.

On to `Cc1c(Cc2ccccc2)c(=O)oc2cc(OC(=O)C(C)(C)C)ccc12` [Compound 55, 3-Benzyl-4-methyl-2-oxo-2H-chromen-7-yl pivalate], for which the melting point lay in the range of 157 to 158 °C. Moreover, at phosphorylated MEK1, the inhibition at 2 µM amounted to 14.6% and the inhibition at 20 µM came out at 14.8%.

Take `Cc1c(Cc2ccccc2)c(=O)oc2cc(OC(=O)C(C)(C)C)c(Cl)cc12` [Compound 56, 3-Benzyl-6-chloro-4-methyl-2-oxo-2H-chromen-7-yl pivalate]: the melting point was determined as 113 °C. At phosphorylated MEK1, the inhibition at 2 µM worked out at 16.6% and the inhibition at 20 µM was found to be 34.1%.

Consider `CCc1c(Cc2ccccc2)c(=O)oc2cc(OC(=O)C(C)(C)C)ccc12` [Compound 57, 3-Benzyl-4-ethyl-2-oxo-2H-chromen-7-yl pivalate], for which the melting point lay within 105 to 106 °C. At phosphorylated MEK1, the inhibition at 2 µM was found to be 6.61% and the inhibition at 20 µM came to 21%.

In turn, `CCCc1c(Cc2ccccc2)c(=O)oc2cc(OC(=O)C(C)(C)C)ccc12` [Compound 58, 3-Benzyl-2-oxo-4-propyl-2H-chromen-7-yl pivalate] returned a melting point of 138 to 139 °C. In addition, on phosphorylated MEK1, the inhibition at 2 µM was determined as 43.2% and the inhibition at 20 µM worked out at 19.1%.

As to `CCc1c(Cc2ccc(F)cc2)c(=O)oc2cc(OC(=O)C(C)(C)C)ccc12` [Compound 59, 4-Ethyl-3-(4-fluorobenzyl)-2-oxo-2H-chromen-7-yl pivalate], the melting point lay in the range of 103 to 104 °C. Besides, at phosphorylated MEK1, the “binding affinity (in words)” value is “inactive”, the inhibition at 2 µM was found to be 45.9% and the inhibition at 20 µM is 23.4%.

Regarding `Cc1c(Cc2ccc(F)cc2)c(=O)oc2cc(OC(=O)C(C)(C)C)ccc12` [Compound 60, 3-(4-Fluorobenzyl)-4-methyl-2-oxo-2H-chromen-7-yl pivalate], the melting point fell in the range of 136 to 138 °C. At phosphorylated MEK1, the inhibition at 2 µM was found to be 23.7% and the inhibition at 20 µM came to 20.3%.

With `CCCc1c(Cc2ccc(F)cc2)c(=O)oc2cc(OC(=O)C(C)(C)C)ccc12` [Compound 61, 3-(4-Fluorobenzyl)-2-oxo-4-propyl-2H-chromen-7-yl pivalate], the melting point is 138 to 140 °C. At phosphorylated MEK1, the inhibition at 2 µM was determined as 31.6% and the inhibition at 20 µM amounted to 40.9%.
